Assay results published in patent publication US9756860B2, “Antimicrobial composition of ortho phenylphenol and silver” (Rohm and Haas Company, priority 2011, dated 2017).
Where two headings read alike, the source gives them in different places.

Key:
Type in all cases: cell-based
[1] = tested on: Candida albicans ATCC#10203; assay: MIC / synergy index test in 96 well microtiter plates, yeast; conditions: C. albicans, ppm active; for MIC: Candida albicans, ATCC10203, alone, read-out: MIC of compound acting alone (CA / CB)
Protocol: (§1) Ortho phenylphenol and silver are evaluated for synergy by determining the synergy index (S.I.) of the combination. Synergy index is calculated based on minimum inhibitory concentrations (MIC) of two antimicrobial compounds (A and B) alone and in combinations. The tests organisms are Gram negative bacteria (Pseudomonas aeruginosa), Gram positive bacteria (Staphylococcus aureus), yeast (Candida albicans) and mold (Aspergillus niger). Contact time for the bacteria is 24 and 48 hours, yeast is 48 and 72 hrs, and 3 and 7 days for mold. The test is carried out in 96 well microtiter plates.
(§2) SI is calculated as follows: Ca/CA+Cb/CB=Synergy Index (“SI”) Wherein: • CA=concentration of compound A in ppm, acting alone, which produced an end point (MIC of Compound A). • Ca=concentration of compound A in ppm, in the mixture, which produced an end point. • CB=concentration of compound B in ppm, acting alone, which produced an end point (MIC of Compound B). • Cb=concentration of compound B in ppm, in the mixture, which produced an end point. When the sum of Ca/CA and Cb/CB is greater than one, antagonism is indicated.

[2] = tested on: Pseudomonas aeruginosa ATCC # 15442; assay: MIC / synergy index test in 96 well microtiter plates, Gram negative bacteria; conditions: Ps. aeruginosa, ppm active; for MIC: Pseudomonas aeruginosa, ATCC15442, alone, read-out: MIC of compound acting alone (CA / CB)
Protocol: as §1, §2

[3] = tested on: Staphylococcus aureus ATCC# 6538; assay: MIC / synergy index test in 96 well microtiter plates, Gram positive bacteria; conditions: S. aureus, ppm active; for MIC: Staphylococcus aureus, ATCC6538, alone, read-out: MIC of compound acting alone (CA / CB)
Protocol: as §1, §2

[4] = tested on: Aspergillus niger ATCC# 16404; assay: MIC / synergy index test in 96 well microtiter plates, mold; conditions: A. niger, ppm active
Protocol: as §1, §2

SMILES | MIC of compound acting alone (CA / CB) ([1]; contact time 48 hrs) | MIC of compound acting alone (CA / CB) ([1]; contact time 72 hrs) | MIC of compound acting alone (CA / CB) ([2]; contact time 24 hrs) | MIC of compound acting alone (CA / CB) ([2]; contact time 48 hrs) | MIC of compound acting alone (CA / CB) ([3]; contact time 24 hrs) | MIC of compound acting alone (CA / CB) ([3]; contact time 48 hrs) | MIC of compound acting alone (CA / CB) ([4]; contact time 3rd day) | MIC of compound acting alone (CA / CB) ([4]; contact time 7th day) | MIC ([1]; contact time 48 hrs) | MIC ([1]; contact time 72 hrs) | MIC ([2]; contact time 24 hrs) | MIC ([2]; contact time 48 hrs) | MIC ([3]; contact time 24 hrs) | MIC ([3]; contact time 48 hrs) | MIC ([4]; Aspergillus niger, ATCC16404, contact time 7th day, alone, read-out: MIC of compound acting alone (CA / CB))
O=[N+]([O-])[O-].[Ag+] [AgNO3, Silver Nitrate] | 10 ppm | 10 ppm | 0.4 ppm | 1 ppm | 6 ppm | 8 ppm | 3 ppm | 10 ppm |  |  |  |  |  |  | 
Oc1ccccc1-c1ccccc1 [OPP, ortho-phenylphenol] |  |  |  |  |  |  | 75 ppm |  | 150 µg/mL | 150 µg/mL | 500 µg/mL | 500 µg/mL | 200 µg/mL | 200 µg/mL | 75 µg/mL
